Measured values from US8952024B2, “Herbicidal pyrimidone derivatives” (E I du Pont de Nemours and Company, priority 2009, dated 2015).

Assays:
Assay in all cases: Test B pre-/postemergence plant response
Format in all cases: in vivo
[1] = test system: green foxtail (Setaria viridis); settings: for Foxtail, Green plant response rating (0 to 100 scale): 62 g ai/ha, 0 is no effect, 13 to 15 days
In short: (§1)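 Greenhouse herbicide screen. Pre- and postemergence (1- to 4-leaf) spray of compound in solvent/surfactant mixture; loam–sand soil for pre, peat/vermiculite medium for post. Visual control rating 0–100 at 13 to 15 days after treatment.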

[2] = test system: velvetleaf (Abutilon theophrasti); settings: for Velvetleaf plant response rating (0 to 100 scale): 62 g ai/ha, postemergence, 0 is no effect, 100 is complete control, 13 to 15 days; for Plant response rating, Velvetleaf: Postemergence
In short: as §1

[3] = test system: large crabgrass (Digitaria sanguinalis); settings: for Crabgrass, Large plant response rating (0 to 100 scale): 62 g ai/ha, 0 is no effect, 13 to 15 days
In short: as §1

[4] = test system: pigweed (Amaranthus retroflexus); settings: for Pigweed plant response rating (0 to 100 scale): 62 g ai/ha, 0 is no effect, 13 to 15 days
In short: as §1

[5] = test system: johnsongrass (Sorghum halepense); settings: for Johnsongrass plant response rating (0 to 100 scale): 62 g ai/ha, 0 is no effect, 13 to 15 days
In short: as §1

[6] = test system: lambsquarters (Chenopodium album); settings: for Lambsquarters plant response rating (0 to 100 scale): 62 g ai/ha, 0 is no effect, 13 to 15 days
In short: as §1

[7] = test system: kochia (Kochia scoparia); settings: for Kochia plant response rating (0 to 100 scale): 62 g ai/ha, 0 is no effect, 13 to 15 days
In short: as §1

[8] = test system: wheat (Triticum aestivum); settings: for Wheat plant response rating (0 to 100 scale): 62 g ai/ha, postemergence, 0 is no effect, 100 is complete control, 13 to 15 days; for Plant response rating, Wheat: Postemergence
In short: as §1

[9] = test system: downy bromegrass (Bromus tectorum); settings: for Bromegrass, Downy plant response rating (0 to 100 scale): 62 g ai/ha, 0 is no effect, 13 to 15 days
In short: as §1

[10] = test system: goosegrass (Eleusine indica); settings: for Goosegrass plant response rating (0 to 100 scale): 62 g ai/ha, 0 is no effect, 13 to 15 days
In short: as §1

[11] = test system: woolly cupgrass (Eriochloa villosa); settings: for Cupgrass, Woolly plant response rating (0 to 100 scale): 62 g ai/ha, 0 is no effect, 13 to 15 days
In short: as §1

[12] = test system: yellow nutsedge (Cyperus esculentus); settings: for Nutsedge, Yellow plant response rating (0 to 100 scale): 62 g ai/ha, 0 is no effect, 13 to 15 days
In short: as §1

[13] = test system: giant foxtail (Setaria faberii); settings: for Foxtail, Giant plant response rating (0 to 100 scale): 62 g ai/ha, 0 is no effect, 13 to 15 days
In short: as §1

[14] = 31 g ai/ha, postemergence, scale 0 to 100, 0 is no effect, 100 is complete control
[15] = postemergence, 100 is complete control
[16] = Postemergence, 125 g ai/ha, scale 0 to 100 (0 no effect, 100 complete control)
[17] = Postemergence, 250 g ai/ha, scale 0 to 100 (0 no effect, 100 complete control)
[18] = 125 g ai/ha, scale 0 to 100 (0 no effect, 100 complete control)
[19] = 250 g ai/ha, scale 0 to 100 (0 no effect, 100 complete control)
[20] = Postemergence, 31 g ai/ha, 0 to 100 scale (0 no effect, 100 complete control)
[21] = 31 g ai/ha, 0 to 100 scale (0 no effect, 100 complete control)

## CCCCn1c(-c2cc(F)cc(F)c2)ncc(C(=O)C2=C(O)CCCC2=O)c1=O [Compound 121]
[1]; [14]
  Plant response rating, Foxtail, Green: 80
[1]; [15]
  Foxtail, Green plant response rating (0 to 100 scale): 90
[1]; [16]
  Plant response rating, Foxtail, Green: 100
[1]; [17]
  Plant response rating, Foxtail, Green: 100
[2]
  Velvetleaf plant response rating (0 to 100 scale): 98
[2]; [18]
  Plant response rating, Velvetleaf: 100
[2]; [19]
  Plant response rating, Velvetleaf: 100
[3]; [14]
  Plant response rating, Crabgrass, Large: 85
[3]; [15]
  Crabgrass, Large plant response rating (0 to 100 scale): 90
[3]; [16]
  Plant response rating, Crabgrass, Large: 95
[3]; [17]
  Plant response rating, Crabgrass, Large: 98
[4]; [14]
  Plant response rating, Pigweed: 100
[4]; [15]
  Pigweed plant response rating (0 to 100 scale): 100
[4]; [16]
  Plant response rating, Pigweed: 100
[4]; [17]
  Plant response rating, Pigweed: 100
[5]; [14]
  Plant response rating, Johnsongrass: 20
[5]; [15]
  Johnsongrass plant response rating (0 to 100 scale): 70
[5]; [17]
  Plant response rating, Johnsongrass: 85
[6]; [14]
  Plant response rating, Lambsquarters: 95
[6]; [15]
  Lambsquarters plant response rating (0 to 100 scale): 100
[6]; [16]
  Plant response rating, Lambsquarters: 100
[6]; [17]
  Plant response rating, Lambsquarters: 100
[7]; [14]
  Plant response rating, Kochia: 95
[7]; [15]
  Kochia plant response rating (0 to 100 scale): 100
[7]; [17]
  Plant response rating, Kochia: 100
[8]
  Wheat plant response rating (0 to 100 scale): 45
[8]; [18]
  Plant response rating, Wheat: 45
[9]; [14]
  Plant response rating, Bromegrass, Downy: 25
[9]; [15]
  Bromegrass, Downy plant response rating (0 to 100 scale): 50
[9]; [16]
  Plant response rating, Bromegrass, Downy: 80
[9]; [17]
  Plant response rating, Bromegrass, Downy: 90
[10]; [14]
  Plant response rating, Goosegrass: 95
[10]; [15]
  Goosegrass plant response rating (0 to 100 scale): 98
[10]; [16]
  Plant response rating, Goosegrass: 98
[10]; [17]
  Plant response rating, Goosegrass: 98
[11]; [14]
  Plant response rating, Cupgrass, Woolly: 95
[11]; [15]
  Cupgrass, Woolly plant response rating (0 to 100 scale): 100
[11]; [16]
  Plant response rating, Cupgrass, Woolly: 100
[11]; [17]
  Plant response rating, Cupgrass, Woolly: 100
[12]; [14]
  Plant response rating, Nutsedge, Yellow: 5
[12]; [15]
  Nutsedge, Yellow plant response rating (0 to 100 scale): 45
[12]; [16]
  Plant response rating, Nutsedge, Yellow: 45
[12]; [17]
  Plant response rating, Nutsedge, Yellow: 50
[13]; [14]
  Plant response rating, Foxtail, Giant: 95
[13]; [15]
  Foxtail, Giant plant response rating (0 to 100 scale): 98
[13]; [16]
  Plant response rating, Foxtail, Giant: 98
[13]; [17]
  Plant response rating, Foxtail, Giant: 98

## COCCn1c(-c2cccc(F)c2)ncc(C(=O)C2=C(O)CCCC2=O)c1=O [Compound 123]
[1]; [15]
  Foxtail, Green plant response rating (0 to 100 scale): 60
[1]; [20]
  Plant response rating, Foxtail, Green: 50
[1]; [16]
  Plant response rating, Foxtail, Green: 85
[1]; [17]
  Plant response rating, Foxtail, Green: 90
[2]
  Velvetleaf plant response rating (0 to 100 scale): 90
[2]; [21]
  Plant response rating, Velvetleaf: 80
[2]; [18]
  Plant response rating, Velvetleaf: 95
[2]; [19]
  Plant response rating, Velvetleaf: 100
[3]; [15]
  Crabgrass, Large plant response rating (0 to 100 scale): 80
[3]; [20]
  Plant response rating, Crabgrass, Large: 70
[3]; [16]
  Plant response rating, Crabgrass, Large: 85
[3]; [17]
  Plant response rating, Crabgrass, Large: 90
[4]; [15]
  Pigweed plant response rating (0 to 100 scale): 98
[4]; [20]
  Plant response rating, Pigweed: 80
[4]; [16]
  Plant response rating, Pigweed: 100
[4]; [17]
  Plant response rating, Pigweed: 100
[5]; [15]
  Johnsongrass plant response rating (0 to 100 scale): 65
[5]; [20]
  Plant response rating, Johnsongrass: 35
[5]; [16]
  Plant response rating, Johnsongrass: 75
[5]; [17]
  Plant response rating, Johnsongrass: 90
[6]; [15]
  Lambsquarters plant response rating (0 to 100 scale): 95
[6]; [20]
  Plant response rating, Lambsquarters: 80
[6]; [16]
  Plant response rating, Lambsquarters: 98
[6]; [17]
  Plant response rating, Lambsquarters: 98
[7]; [15]
  Kochia plant response rating (0 to 100 scale): 65
[7]; [20]
  Plant response rating, Kochia: 60
[7]; [16]
  Plant response rating, Kochia: 80
[7]; [17]
  Plant response rating, Kochia: 100
[8]
  Wheat plant response rating (0 to 100 scale): 15
[8]; [21]
  Plant response rating, Wheat: 10
[8]; [18]
  Plant response rating, Wheat: 15
[9]; [15]
  Bromegrass, Downy plant response rating (0 to 100 scale): 5
[9]; [20]
  Plant response rating, Bromegrass, Downy: 0
[9]; [16]
  Plant response rating, Bromegrass, Downy: 10
[9]; [17]
  Plant response rating, Bromegrass, Downy: 45
[10]; [15]
  Goosegrass plant response rating (0 to 100 scale): 65
[10]; [20]
  Plant response rating, Goosegrass: 65
[10]; [16]
  Plant response rating, Goosegrass: 80
[10]; [17]
  Plant response rating, Goosegrass: 85
[11]; [15]
  Cupgrass, Woolly plant response rating (0 to 100 scale): 45
[11]; [20]
  Plant response rating, Cupgrass, Woolly: 25
[11]; [16]
  Plant response rating, Cupgrass, Woolly: 75
[11]; [17]
  Plant response rating, Cupgrass, Woolly: 90
[12]; [15]
  Nutsedge, Yellow plant response rating (0 to 100 scale): 75
[12]; [20]
  Plant response rating, Nutsedge, Yellow: 65
[12]; [16]
  Plant response rating, Nutsedge, Yellow: 75
[12]; [17]
  Plant response rating, Nutsedge, Yellow: 80
[13]; [15]
  Foxtail, Giant plant response rating (0 to 100 scale): 75
[13]; [20]
  Plant response rating, Foxtail, Giant: 65
[13]; [16]
  Plant response rating, Foxtail, Giant: 80
[13]; [17]
  Plant response rating, Foxtail, Giant: 85
